Experimental data: patent publication US20220062147A1, “Skin Care Formulation for Treatment of Cellulite” (BOTTLED SCIENCE LIMITED, priority 2020, published 2022)

System: subjects with cellulite
Test: Superoxide dismutase administered to subjects with cellulite; subcutaneous fat measured after 90 days
Assay type: in vivo, human
From the text: Similarly, there was a 23% reduction in subcutaneous fat compared with the placebo after 90 days at the femoral fold.

superoxide dismutase
reduction in subcutaneous fat compared with the placebo at the femoral fold (after 90 days, femoral fold, vs placebo): 23%
reduction in subcutaneous fat compared with the placebo at the gluteal fold (after 90 days, gluteal fold, vs placebo): 28%
subcutaneous fat at the femoral fold (FIG. 1, right-hand chart) (clinical trials, femoral fold, result in words): significantly reduces
subcutaneous fat at the gluteal fold (FIG. 1, left-hand chart) (clinical trials, gluteal fold, result in words): significantly reduces
